# Data reported in patent US9737075B2, “Synergistic benzoxaborole-containing anti-fungicidal composition” (The Penn State Research Foundation, priority 2015, dated 2017).
# Like-named read-outs stand apart in the source and are kept apart here.
# Columns and labels:
# Type in all cases: cell-based
# Fusarium verticillioides = experiment: Broth microdilution MIC of individual antifungals; conditions: individual antifungal, 25% PDB, about 25° C., 72 hours, range over N independent triplicate studies, read-out: Independent MIC
# Aspergillus niger = experiment: Broth microdilution MIC of individual antifungals; conditions: read-out: Independent MIC
# Aspergillus fumigatus = experiment: Broth microdilution MIC of individual antifungals; conditions: individual antifungal, 25% PDB, about 25° C., 72 hours, range over N independent triplicate studies, read-out: Independent MIC
# Mucor sp. = experiment: Broth microdilution MIC of individual antifungals; conditions: individual antifungal, 25% PDB, about 25° C., 72 hours, range over N independent triplicate studies
# Aureobasidium pullulans = experiment: Broth microdilution MIC of individual antifungals; conditions: individual antifungal, 25% PDB, about 25° C., 72 hours, range over N independent triplicate studies, read-out: Independent MIC
# [1] = test system: Fusarium solani f. sp. pisi (MP VI); experiment: Broth microdilution MIC of individual antifungals; conditions: read-out: Independent MIC
# [2] = test system: Mycosphaerella zeae-maydis; experiment: Broth microdilution MIC of individual antifungals; conditions: Didymella maydis, individual antifungal, 25% PDB, about 25° C., 72 hours, range over N independent triplicate studies
# Aspergillus flavus = experiment: Broth microdilution MIC of individual antifungals; conditions: read-out: Independent MIC
# [3] = test system: two dozen different fungal organisms; experiment: Broth microdilution MIC, summary over the organisms examined
# Protocol: All antifungal susceptibility assays were conducted in triplicate and N independent times. Thus, the inhibition studies were conducted a total of 3·N times. […] Thus, each synergy assay (combination of two antifungals) was conducted in conjunction with independent MIC determination. FICI values were calculated by comparing the inhibition activity of the combination (benzoxaborole+another antifungal) against the efficacy of the individual antifungal within the same experiment (using the same experimental conditions).
# The studies were performed in flat bottom, 96-well microtiter plates (Greiner Bio-One).
# Plates sealed with clear polyester film (VWR) were incubated at a temperature of about 25° C. The progress of fungal growth was monitored at 48 hours, 72 hours, 7 days, and 15 days. […] In order to establish appropriate comparison between the different fungi, the FICI (thus, the MICs used) determination was done at 72 hours for all cases discussed herein.
# The MICs of the individual antifungals (MICBoron and MICA) and in combination (MICBA) were determined after 72 hours of incubation. […] MICA is defined as the MIC value of every other individual non-benzoxaborole-based antifungal. MICBA is defined as the MIC value when the benzoxaborole antifungal is combined with another non-benzoxaborole antifungal. […] The combination studies were performed in triplicate in flat bottom 96-well microtiter plates with a final media volume of 0.2 mL/well.
# [4] = test system: Fusarium oxysporum f. sp. lycopersici; experiment: Broth microdilution MIC of individual antifungals; conditions: individual antifungal, 25% PDB, about 25° C., 72 hours, range over N independent triplicate studies
# Rhizopus sp. = experiment: Broth microdilution MIC of individual antifungals; conditions: read-out: Independent MIC
# Botrytis cinerea B17 = experiment: Broth microdilution MIC of individual antifungals; conditions: Botrytis cinerea B17; individual antifungal, 25% PDB, about 25° C., 72 hours; range over N independent triplicate studies; read-out: Independent MIC
# Alternaria solani = experiment: Broth microdilution MIC of individual antifungals; conditions: individual antifungal, 25% PDB, about 25° C., 72 hours, range over N independent triplicate studies, read-out: Independent MIC
# Stachybotrys chartarum = experiment: Broth microdilution MIC of individual antifungals; conditions: individual antifungal, 25% PDB, about 25° C., 72 hours, range over N independent triplicate studies, read-out: Independent MIC
# Sclerotinia homoeocarpa = experiment: Broth microdilution MIC of individual antifungals; conditions: Clarireedia homoeocarpa; Sclerotinia homoeocarpa; individual antifungal, 25% PDB, about 25° C., 72 hours; range over N independent triplicate studies; read-out: Independent MIC
# Botrytis cinerea 10-1728 = experiment: Broth microdilution MIC of individual antifungals; conditions: 101728; Botrytis cinerea 10-1728; individual antifungal, 25% PDB, about 25° C., 72 hours; range over N independent triplicate studies; read-out: Independent MIC
# Fusarium oxysporum ST33 = experiment: Broth microdilution MIC of individual antifungals; conditions: individual antifungal, 25% PDB, about 25° C., 72 hours, range over N independent triplicate studies
# [5] = test system: Colletotrichum orbiculare; experiment: Broth microdilution MIC of individual antifungals; conditions: read-out: Independent MIC
# Pythium aphanodermatum = experiment: Broth microdilution MIC of individual antifungals; conditions: individual antifungal, 25% PDB, about 25° C., 72 hours, range over N independent triplicate studies
# Phytophthora pini = experiment: Broth microdilution MIC of individual antifungals; conditions: individual antifungal, 25% PDB, about 25° C., 72 hours, range over N independent triplicate studies
# Candida albicans = experiment: Broth microdilution MIC of individual antifungals; conditions: read-out: Independent MIC
# Magnaporthe grisea = experiment: microbe, parasite or virus in culture; conditions: Pyricularia oryzae, 72 h, read-out: Independent MIC
# Penicillium chrysogenum = experiment: Broth microdilution MIC of individual antifungals; conditions: read-out: Independent MIC
# Fusarium graminearum = experiment: microbe, parasite or virus in culture; conditions: Fusarium graminearum, 72 h, read-out: Independent MIC
# Rhizoctonia solani = experiment: Broth microdilution MIC of individual antifungals; conditions: read-out: Independent MIC
# [6] = individual antifungal, 25% PDB, about 25° C., 72 hours, range over N independent triplicate studies
# [7] = Fusarium solani f. sp. pisi (MP VI), individual antifungal, 25% PDB, about 25° C., 72 hours, range over N independent triplicate studies
# [8] = by itself, against the organisms examined (Table 1), regularly
# [9] = Rhizopus, 72 h, Rhizopus sp., individual antifungal, 25% PDB, about 25° C., 72 hours, range over N independent triplicate studies
# [10] = against many species tested here
Compound,MIC (Fusarium verticillioides) [µg/mL],MIC (Aspergillus niger; [6]) [µg/mL],MIC (Aspergillus fumigatus) [µg/mL],MIC (Mucor sp.) [µg/mL],MIC (Aureobasidium pullulans) [µg/mL],"MIC [1, 7] [µg/mL]",MIC [2] [µg/mL],MIC (Aspergillus flavus; [6]) [µg/mL],MIC [4] [µg/mL],MIC (Rhizopus sp.; [9]) [µg/mL],MIC (Botrytis cinerea B17) [µg/mL],MIC (Alternaria solani) [µg/mL],MIC (Stachybotrys chartarum) [µg/mL],MIC (Sclerotinia homoeocarpa) [µg/mL],MIC (Botrytis cinerea 10-1728) [µg/mL],MIC (Fusarium oxysporum ST33) [µg/mL],"MIC [5, 6] [µg/mL]",MIC (Phytophthora pini) [µg/mL],MIC (Magnaporthe grisea) [µg/mL],MIC (Fusarium graminearum) [µg/mL],further results
"Cc1ccc2c(c1)COB2O [B1, 5-Methyl-1,3-dihydro-2,1-benzoxaborol-1-ol]",0.5,2,0.25,1,1,2,16,2,1,16,2,1,0.5,1,2,1,–,–,–,–,"MIC [3, 8]: ≤ 4 µg/mL"
"OB1OCc2cc(Cl)ccc21 [B18, 5-chloro-1,3-dihydro-2,1-benzoxaborol-1-ol]",0.25 to 0.5,0.5 to 2,0.125 to 0.25,0.5 to 1,0.125,0.5,4 to 8,0.5 to 1,0.25,0.5 to 2,0.5,0.5,0.25 to 1,1 to 4,0.5 to 2,0.5,0.78,0.125,0.39 to 1.56,1,"MIC (Pythium aphanodermatum): 0.25 to 2 µg/mL; MIC (Candida albicans; [6]): 0.5 to 1 µg/mL; MIC [3, 8]: ≤ 4 µg/mL; MIC (Penicillium chrysogenum; [6]): 0.19 to 0.38 µg/mL; MIC (Rhizoctonia solani; [6]): 1.56 to 8 µg/mL"
"OB1OCc2cc(F)ccc21 [B90, 5-Fluoro-1,3-dihydro-2,1-benzoxaborol-1-ol]",0.25 to 0.4,0.25 to 1,0.063 to 0.125,0.25,0.25 to 0.5,0.5 to 1,1 to 8,0.5 to 1,0.25 to 0.5,1 to 2,0.5 to 2,0.25 to 0.5,0.25 to 0.5,0.25 to 1,0.25 to 0.5,0.25 to 0.5,0.78 to 1.56,–,1.25 to 2,0.5 to 2,"MIC (Pythium aphanodermatum): 2 to 4 µg/mL; MIC (Candida albicans; [6]): 0.5 µg/mL; MIC [3, 8]: ≤ 4 µg/mL; MIC (Penicillium chrysogenum; [6]): 0.19 to 0.39 µg/mL; MIC (Rhizoctonia solani; [6]): 1.56 to 8 µg/mL"
"O=C1C2CC=CCC2C(=O)N1SC(Cl)(Cl)Cl (stereo not shown) [Captan, captan]",1 to 2,12.5 to 16,6.25 to 12.5,3.12 to 12.5,0.375 to 0.78,3 to 3.12,1 to 1.56,12.5 to 25,1.56 to 4,12.5 to 40,1.88 to 4,1.5 to 3.12,0.39 to 0.5,2 to 4,0.94 to 1.56,1 to 2,0.39 to 0.78,0.39,0.19 to 0.2,0.78 to 0.8,"MIC (Pythium aphanodermatum): 28 µg/mL; MIC [3, 10]: > 25 µg/mL; MIC (Penicillium chrysogenum; [6]): 0.75 to 0.78 µg/mL"
"CNC(=S)S [Metam Sodium, Metam sodium]",25,–,25,50,–,–,6 to 6.25,–,–,–,–,12.5 to 15,–,6.25,50 to 200,–,–,50,–,12.5 to 25,"MIC ([5]; 72 h): 12.5 to 25 µg/mL; MIC (Aspergillus niger; 72 h): 50 µg/mL; MIC ([1]; Fusarium solani, 72 h): 25 to 50 µg/mL; MIC (Aspergillus flavus; 72 h): 25 µg/mL; MIC (Candida albicans; 72 h): 25 µg/mL; MIC [3, 10]: > 25 µg/mL; MIC (Rhizopus sp.; Rhizopus, 72 h): 100 µg/mL; MIC (Penicillium chrysogenum; 72 h): 50 µg/mL; MIC (Rhizoctonia solani; [6]): 25 to 50 µg/mL"
"S=C(S)NCCNC(=S)S [Zineb, zineb]",3.12 to 6.25,–,0.78 to 1.56,–,–,6.25 to 12.5,1.56 to 2,–,–,–,–,6.25 to 12.5,–,6.25 to 12.5,3 to 3.12,–,3.13 to 6.25,25,0.78 to 1.56,1.56,"MIC (Aspergillus flavus; 72 h): 1 to 1.56 µg/mL; MIC (Candida albicans; 72 h): 3.12 µg/mL; MIC [3, 10]: > 25 µg/mL; MIC (Rhizopus sp.; Rhizopus sp., individual antifungal, 25% PDB, about 25° C., 72 hours, range over N independent triplicate studies): 12.5 µg/mL; MIC (Penicillium chrysogenum; 72 h): 1.56 to 6.25 µg/mL; MIC (Rhizoctonia solani; 72 h): 3.12 µg/mL"
